In ChEMBL document CHEMBL3244166, “Syntheses and biological activities of basically substituted isoalloxazines” (J Med Chem, 1978):

Experiments:
Rattus norvegicus [1] = assay: In vivo inhibition of riboflavin activity in weanling Wistar rat assessed as change in body weight at 2 mg/kg/day administered by stomach tube prior to feeding with riboflavin-deficient diet measured for 28 days (reference value: 3 +/- 1 g); assay type: functional
[2] = Toxicity in weanling Wistar rat assessed as survival at 2 mg/rat/day administered by stomach tube prior to feeding with riboflavin-deficient diet measured for 28 days relative to control; conditions: in vivo, oral
Rattus norvegicus [3] = assay: Induction of riboflavin-like activity in weanling Wistar rat assessed as change in body weight at 2 mg/kg/day administered by stomach tube prior to feeding with riboflavin-deficient diet measured for 28 days in presence of 20 ug/day riboflavin (reference value: 3 +/- 1 g); assay type: functional
Rattus norvegicus [4] = assay: Induction of riboflavin-like activity in weanling Wistar rat assessed as change in body weight at 2 mg/kg/day administered by stomach tube prior to feeding with riboflavin-deficient diet measured for 28 days in presence of 40 ug/day riboflavin (reference value: 3 +/- 1 g); assay type: functional
Rattus norvegicus [5] = assay: Induction of riboflavin-like activity in weanling Wistar rat assessed as change in body weight at 2 mg/kg/day administered by stomach tube prior to feeding with riboflavin-deficient diet measured for 28 days in presence of 60 ug/day riboflavin (reference value: 3 +/- 1 g); assay type: functional
Rattus norvegicus [6] = assay: In vivo inhibition of riboflavin activity in weanling Wistar rat assessed as decrease in body weight at 2 mg/kg/day administered by stomach tube prior to feeding with riboflavin-deficient diet measured for >= 14 days (reference value: 3 +/- 1 g); assay type: functional

With `Cc1cc2nc3c(=O)[nH]c(=O)nc-3n(CCN(CCO)CCO)c2cc1Cl.Cl` as the compound, how does the Activity (Rattus norvegicus [1]) read?
Its Activity is 0 g.

What about the survival at 672 h [2] of the same compound?
The survival at 672 h was 100%.

Which results are given for `CCc1cc2nc3c(=O)[nH]c(=O)nc-3n(CCN(CCO)CCO)c2cc1C.Cl`?
Activity (Rattus norvegicus [1]): -25 g; Activity (Rattus norvegicus [3]): -2 g; Activity (Rattus norvegicus [4]): 21 g; survival at 672 h [2]: 60%

Which results are given for `O=c1nc2n(CCN(CCO)CCO)c3cc(Cl)c(Cl)cc3nc-2c(=O)[nH]1`?
Activity (Rattus norvegicus [1]): 6 g; survival at 672 h [2]: 100%

Which Activity (Rattus norvegicus [3]) does the source give for `CCc1cc2nc3c(=O)[nH]c(=O)nc-3n(CCN(CCO)CCO)c2cc1CC.Cl` here?
The Activity was -9 g.

And the Activity (Rattus norvegicus [4])?
The Activity was 7 g.

What about the Activity (Rattus norvegicus [5]) of the same compound?
The Activity was 33 g.

What about the Activity (Rattus norvegicus [6]) of the same compound?
The Activity was -26 g.

What about the survival at 672 h [2] of the same compound?
Its survival at 672 h is 25%.

With `Cc1cc2c(cc1Cl)nc1c(=O)[nH]c(=O)nc-1n2CCN(CCO)CCO.Cl` as the compound, how does the Activity (Rattus norvegicus [1]) read?
Its Activity is -8 g.

What about the survival at 672 h [2] of the same compound?
The survival at 672 h was 100%.

For `Cc1cc2nc3c(=O)[nH]c(=O)nc-3n(CCN(CCO)CCO)c2cc1C`, which Activity (Rattus norvegicus [1]) is on record?
Its Activity is -10 g.

And the Activity (Rattus norvegicus [3])?
The Activity was 35 g.

And the survival at 672 h [2]?
The survival at 672 h was 40%.
